Entries after “also recorded” stand apart in the source; their conditions may differ.
Columns and labels:
[1] = tested on: rats with infraorbital nerve injury; test: Mechanical sensitivity (von Frey filaments) after photochemically-induced ischemic infraorbital nerve (IoN) injury, model of trigeminal neuropathic pain; type: in vivo, rat; details: for effect on mechanical hypersensitivity (response threshold to von Frey stimulation): 14-16 days after IoN injury
Experimental: (§1) Male and female Sprague-Dawley rats (Möllegård, Denmark) weighing 200-250 g at the start of the experiments were used. All experimental procedures were approved by the local research ethics committee.
Rats were anesthetized with chloral hydrate. The left IoN was exposed via a longitudinal incision at the maxillary region and all branches of the nerve were carefully lifted on a glass hook. A piece of aluminium foil was placed under the nerve and the nerve was irradiated for 6 min with the tunable argon ion laser. The rat was positioned so that the laser beam was perpendicular and transversal to the exposed nerve. Immediately before irradiation erythrosin B was injected i.v. and the injection was repeated after 5 min. After irradiation the wound was closed in layers.
Mechanical sensitivity was tested with a series of von Frey filaments. The rat was gently held by the experimenter and the von Frey filaments were applied in ascending order to the IoN territory on the hairy skin of the vibrissal pad. The stimulation with each filament consisted of four consecutive applications at 1/s on the injured and then on the contralateral side. […] The rats were habituated to the testing procedure for several days before nerve injury and baseline response was determined in two sessions. Testing was carried out 3, 7, 10 and 14 d after the injury to assess the development of mechanical hypersensitivity. The effect of SPM 927 (7.5, 15, and 30 mg/kg) was tested 14-16 days after injury when mechanical hypersensitivity was well established. Measurements were taken 30 min, 1 h, 2 h, and 3 h following drug injection.
(§2) SPM 927 was dissolved in physiological saline and injected intraperitoneally. The data are expressed as median±M.A.D. and analysed with Wilcoxon signed-ranks test.

[2] = tested on: rats with infraorbital nerve injury; test: Motor deficits observed in rats with IoN injury after drug injection; type: in vivo, rat; details: i.p., doses 7.5-30 mg/kg
Experimental: as §1, §2

`COC[C@@H](NC(C)=O)C(=O)NCc1ccccc1` [SPM 927, (R)-2-acetamide-N-benzyl-3-methoxypropionamide] was tested, and the “effect on mechanical hypersensitivity (response threshold to von Frey stimulation)” value (shortened to “effect on mechanical hypersensitivity”) ([1]; female rats, 7.5 mg/kg i.p.) was “no effect”, the “effect on mechanical hypersensitivity” value ([1]; female rats, 15 mg/kg i.p.) was “significantly and markedly alleviated mechanical hypersensitivity” and the “effect on mechanical hypersensitivity” value ([1]; female rats, 20 mg/kg i.p.) was “significantly and markedly alleviated mechanical hypersensitivity”. For the same compound, the “effect on mechanical hypersensitivity” value ([1]; male rats, 15 mg/kg i.p.) was “did not alleviate mechanical hypersensitivity”, the “effect on mechanical hypersensitivity” value ([1]; male rats, 20 mg/kg i.p.) was “did not alleviate mechanical hypersensitivity” and the “effect on mechanical hypersensitivity” value ([1]; male rats, 30 mg/kg i.p.) was “significantly alleviated mechanical hypersensitivity for 3 h”. The “overall analgesic or/and anti-allodynic effect in rat model of trigeminal neuropathic pain” value ([1]; systemic, single dose administration) was “dose-dependent analgesic or/and anti-allodynic effect; also recorded: significant efficacy in reducing mechanical hypersensitivity” and the motor deficits [2] was “did not cause motor deficits”.

Reference: patent publication US8338641B2, “Method for treating atypical facial pain” (UCB Pharma GmbH, priority 2004, dated 2012)
